Read-outs that look alike come from different tables or passages of the source.
Experiments:
EV-71 Tainan/4643/98 = assay: Virus yield reduction assay, EV-71 Tainan/4643/98; format: cell-based; settings: read-out: 90% Effective concentration EC90; EV-71 Tainan/4643/98, Vero 76, virus yield reduction
Vero = assay: Cytotoxicity; format: cell-based; settings: read-out: 50% Cytotoxic concentration CC50, line of Coxsackie B5
[1] = tested on: ma-EV-D68 US/MO/14-18949 (Mouse adapted); assay: CPE reduction assay, ma-EV-D68 US/MO/14-18949; format: cell-based; settings: read-out: 50% Effective concentration EC50, RD
[2] = tested on: EV-D68 MP30 PP (mouse-adapted); assay: EV-D68 neurological infection; format: in vivo, AG129 mice; settings: for Mean day of death: placebo 5.5 days
[3] = tested on: Influenza H1N1 California/07/2009; assay: Virus yield reduction assay, Influenza H1N1 California/07/2009; format: cell-based; settings: read-out: 90% Effective concentration EC90, Influenza H1N1 California/07/2009, MDCK
mouse-adapted CVB5 = assay: Mouse model of CVB5-induced pancreatitis; format: in vivo, BALB/c mice
Coxsackievirus B5 (CVB5) = assay: CVB5 CPE rescue; format: cell-based
CYP2C9 = CYP2C9 (Homo sapiens, UniProt P11712); assay: CYP inhibition, CYP2C9; format: in vitro ADME; settings: read-out: CYP inhibition
CYP2C9, sequence (P11712 whole entry): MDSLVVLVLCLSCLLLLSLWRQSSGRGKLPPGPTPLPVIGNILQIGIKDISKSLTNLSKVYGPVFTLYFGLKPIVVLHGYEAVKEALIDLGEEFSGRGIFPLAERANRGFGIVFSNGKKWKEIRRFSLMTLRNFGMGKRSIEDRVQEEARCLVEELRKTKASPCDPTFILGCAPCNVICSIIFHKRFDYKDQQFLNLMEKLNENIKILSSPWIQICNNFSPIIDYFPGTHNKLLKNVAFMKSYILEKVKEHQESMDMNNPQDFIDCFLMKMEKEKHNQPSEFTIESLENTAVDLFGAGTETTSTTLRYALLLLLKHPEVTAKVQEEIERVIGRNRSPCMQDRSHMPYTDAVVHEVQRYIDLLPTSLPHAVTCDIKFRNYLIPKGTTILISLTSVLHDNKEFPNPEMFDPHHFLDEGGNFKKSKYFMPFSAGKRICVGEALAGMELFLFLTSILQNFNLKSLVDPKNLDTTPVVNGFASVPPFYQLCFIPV

SARS-CoV-2 USA/WA1/2020 = assay: CPE reduction assay, SARS-CoV-2 USA/WA1/2020; format: cell-based; settings: read-out: 50% Effective concentration EC50; SARS-CoV-2 USA/WA1/2020, Vero 76, CPE
[4] = tested on: Influenza H1N1 California/07/2009; assay: CPE reduction assay, Influenza H1N1 California/07/2009; format: cell-based; settings: read-out: 50% Effective concentration EC50, Influenza H1N1 California/07/2009, MDCK
CYP3A4 = settings: 1 μM, rifampicin as positive control, previously tested
[5] = target: T1, pregnane X-receptor (PXR) (Homo sapiens, UniProt O75469); assay: PXR agonist activity
T1 sequence (O75469 1-434): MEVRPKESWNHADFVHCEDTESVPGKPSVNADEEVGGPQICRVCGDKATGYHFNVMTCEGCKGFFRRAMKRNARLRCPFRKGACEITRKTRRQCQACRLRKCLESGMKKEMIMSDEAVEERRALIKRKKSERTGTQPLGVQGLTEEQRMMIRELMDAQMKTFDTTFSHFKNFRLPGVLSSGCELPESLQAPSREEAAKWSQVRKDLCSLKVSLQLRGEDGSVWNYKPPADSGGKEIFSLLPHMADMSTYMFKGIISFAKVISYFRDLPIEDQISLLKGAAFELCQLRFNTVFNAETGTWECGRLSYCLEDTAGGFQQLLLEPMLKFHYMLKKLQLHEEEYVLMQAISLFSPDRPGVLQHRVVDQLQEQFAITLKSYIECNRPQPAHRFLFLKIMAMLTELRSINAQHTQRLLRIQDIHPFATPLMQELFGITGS

Mouse plasma stability = format: in vitro ADME; settings: @ 5 hr, 37°C
RD = assay: Cytotoxicity; format: cell-based, human

SMILES: Cc1cc(-c2noc(C(F)(F)F)n2)ccc1OCCCc1cc(C(=O)N(C)C)no1 [compound 11526092, 3-(3-methyl-4-(3-(3-N,N-dimethylcarbamoyl-isoxazol-5-yl)propoxy)phenyl)-5-trifluoromethyl-1,2,4-oxadiazole]
- EC90 (EV-71 Tainan/4643/98): 2.45 µM
- CC50 (Vero): 59.1 µM
- EC50 [1]: 0.028 µM
- Mean day of death ([2]; 1 mg 11526092-treated group): 6.3 days
- Mean day of death ([2]; 3 mg 11526092-treated group): 5.4 days
- Mean day of death ([2]; 10 mg 11526092-treated group): 4.3 days
- Efficacy in the acute flaccid myelitis neurological infection model ([2]; abstract): did not show efficacy
- Neurological scores ([2]; post-challenge study): none of the 1526092-treated mice showed a statistically significant reduction in neurological scores
- Protection from challenge infection (in words) ([2]; pre-challenge study): None of the pre-challenge 1526092-treated mice were protected from challenge infection
- EC90 [3]: 9.4 µM
- Relative fold gene expression in the pancreas (qPCR) (mouse-adapted CVB5; 100 mg/kg per day, Fig. 5B): statistically significant (P≤0.05) decrease
- Histology of pancreatic tissue (mouse-adapted CVB5; CVB5-infected mice, Fig. S20): no signs of tissue damage
- EC50 (Coxsackievirus B5 (CVB5); read-out: 50% Effective concentration EC50): 0.001 µM
- EC50 (Coxsackievirus B5 (CVB5); read-out: EC50 against CVB5, Vero cells, text values (Fig. S3)): 0.0011 µM
- IC50 (CYP2C9): 5 µM
- EC50 (SARS-CoV-2 USA/WA1/2020): > 7.54 µM
- EC50 [4]: 25.9 µM
- CYP3A induction, of control (CYP3A4): 3 % of control
- CYP3A induction (CYP3A4; single donor in duplicate): 1.2 x
- PXR agonism (in words) [5]: neither 11526092 nor pleconaril is an agonist
- EC50 ([5]; read-out: PXR EC50): > 100 µM
- Mouse plasma stability (Mouse plasma stability): 81.1% @ 5 hr, 37 °C
- CC50 (RD; read-out: 50% Cytotoxic concentration CC50, line of EV-D68 US/KY/14-18953): 2.4 µM
- CC50 (RD; read-out: 50% Cytotoxic concentration CC50, line of EV-D68 US/MO/14-18949): 28 µM
- CC50 (RD; read-out: 50% Cytotoxic concentration CC50, line of Human Echovirus-11): 18 µM
- CC50 (RD; read-out: 50% Cytotoxic concentration CC50, line of Human Echovirus-30): 11 µM
